Broadly, the EC50 is the concentration needed to bring the measured effect to its halfway point.

The target of the experiment is T1, human RXFP1 receptor (Homo sapiens, UniProt Q9HBX9).
T1 construct: expressed in transfected cells
T1 sequence (Q9HBX9 1-757): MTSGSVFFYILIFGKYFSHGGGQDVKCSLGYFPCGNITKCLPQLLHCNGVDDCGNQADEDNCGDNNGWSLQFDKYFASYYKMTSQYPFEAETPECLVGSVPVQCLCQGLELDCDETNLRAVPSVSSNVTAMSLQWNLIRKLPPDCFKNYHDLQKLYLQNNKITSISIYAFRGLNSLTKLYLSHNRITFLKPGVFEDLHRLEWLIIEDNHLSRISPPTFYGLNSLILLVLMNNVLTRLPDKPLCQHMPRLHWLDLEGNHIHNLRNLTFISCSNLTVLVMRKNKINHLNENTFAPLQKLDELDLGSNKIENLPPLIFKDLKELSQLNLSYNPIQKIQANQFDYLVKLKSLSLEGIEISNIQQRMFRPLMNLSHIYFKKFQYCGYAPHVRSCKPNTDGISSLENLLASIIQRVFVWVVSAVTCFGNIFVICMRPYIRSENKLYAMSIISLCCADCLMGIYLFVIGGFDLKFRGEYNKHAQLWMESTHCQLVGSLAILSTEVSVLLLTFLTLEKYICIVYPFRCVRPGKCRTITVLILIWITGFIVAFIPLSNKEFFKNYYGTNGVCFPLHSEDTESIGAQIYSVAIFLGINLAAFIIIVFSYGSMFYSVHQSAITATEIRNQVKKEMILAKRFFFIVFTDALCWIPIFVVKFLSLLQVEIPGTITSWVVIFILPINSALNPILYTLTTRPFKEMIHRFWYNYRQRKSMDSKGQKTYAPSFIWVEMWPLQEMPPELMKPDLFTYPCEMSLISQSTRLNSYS
In words: Intracellular cAMP accumulation assay. In kind it is cell-based.
On to `CCCCCCCCCCCCCCCC(=O)N[C@@H](CCC(=O)N[C@@H](CCC(=O)O)C(=O)N[C@@H](CCC(=O)O)C(=O)N[C@@H](CCC(=O)O)C(=O)N[C@@H](CCC(=O)O)C(=O)N1CCC[C@H]1C(=O)N[C@@H](CCC(=O)O)C(=O)N[C@@H](CCC(=O)O)C(=O)N[C@@H](CCC(=O)O)C(=O)N[C@@H](CCC(=O)O)C(=O)N1CCC[C@H]1C(=O)N[C@@H](CCC(=O)O)C(=O)N[C@@H](CCC(=O)O)C(=O)N[C@@H](CCC(=O)O)C(=O)N[C@@H](CCC(=O)O)C(=O)N1CCC[C@H]1C(=O)N[C@@H](CCC(=O)O)C(=O)N[C@@H](CCC(=O)O)C(=O)N[C@@H](CCC(=O)O)C(=O)N[C@@H](CCC(=O)O)C(=O)NCCON=C(C)c1ccc(C[C@H](N)C(=O)N[C@@H](CC(C)C)C(=O)N[C@@H](Cc2ccc(O)cc2)C(=O)N[C@@H](CO)C(=O)N[C@@H](C)C(=O)N[C@@H](CC(C)C)C(=O)N[C@@H](C)C(=O)N[C@@H](CC(N)=O)C(=O)N[C@@H](CCCCN)C(=O)N[C@H]2CSSC[C@@H]3NC(=O)CNC(=O)[C@H](C(C)C)NC(=O)[C@H](Cc4c[nH]cn4)NC(=O)[C@H](CSSC[C@H](NC(=O)[C@H](CC(C)C)NC(=O)[C@H](CCCCN)NC(=O)[C@@H](NC(=O)[C@@H](NC(=O)[C@H](CCC(=O)O)NC(=O)[C@H](CCC(=O)O)NC(=O)[C@H](CCSC)NC(=O)[C@H](Cc4c[nH]c5ccccc45)NC(=O)[C@H](CO)NC(=O)[C@H](C)N)C(C)C)[C@@H](C)CC)C(=O)NCC(=O)N[C@@H](CCCNC(=N)N)C(=O)N[C@@H](CCC(=O)O)C(=O)N[C@@H](CC(C)C)C(=O)N[C@@H](C(C)C)C(=O)N[C@@H](CCCNC(=N)N)C(=O)N[C@@H](C)C(=O)N[C@@H](CCC(N)=O)C(=O)N[C@@H]([C@@H](C)CC)C(=O)N[C@@H](C)C(=O)N[C@@H]([C@@H](C)CC)C(=O)N[C@H](C(=O)NCC(=O)N[C@@H](CCSC)C(=O)N[C@@H](CO)C(=O)N[C@H](C(=O)N[C@@H](Cc4c[nH]c5ccccc45)C(=O)N[C@@H](CO)C(=O)O)[C@@H](C)O)CSSC[C@@H](C(=O)O)NC(=O)[C@H](Cc4ccccc4)NC(=O)[C@H](CCCNC(=N)N)NC(=O)[C@H](C)NC(=O)[C@H](CC(C)C)NC(=O)[C@H](CO)NC(=O)[C@H](CCCNC(=N)N)NC(=O)[C@H](CCCCN)NC(=O)[C@H]([C@@H](C)O)NC3=O)NC2=O)cc1)C(=O)O` [AQ1-EEEEPEEEEPEEEEPEEEE-Glu^γ-C15-CH3], for which the EC50 amounted to 0.34 nM.

`CC[C@H](C)[C@@H]1NC(=O)[C@H](C)NC(=O)[C@H]([C@@H](C)CC)NC(=O)[C@H](CCC(N)=O)NC(=O)[C@H](C)NC(=O)[C@H](CCCNC(=N)N)NC(=O)[C@H](C(C)C)NC(=O)[C@H](CC(C)C)NC(=O)[C@H](CCC(=O)O)NC(=O)[C@H](CCCNC(=N)N)NC(=O)CNC(=O)[C@@H](NC(=O)[C@H](CC(C)C)NC(=O)[C@H](CCCCN)NC(=O)[C@@H](NC(=O)[C@@H](NC(=O)[C@H](CCC(=O)O)NC(=O)[C@H](CCC(=O)O)NC(=O)[C@H](CCSC)NC(=O)[C@H](Cc2c[nH]c3ccccc23)NC(=O)[C@H](CO)NC(=O)[C@H](C)N)C(C)C)[C@@H](C)CC)CSSC[C@@H]2NC(=O)[C@@H](NC(=O)[C@H](CCCCN)NC(=O)[C@H](CC(N)=O)NC(=O)[C@H](C)NC(=O)[C@H](CC(C)C)NC(=O)[C@H](C)NC(=O)[C@H](CO)NC(=O)[C@H](Cc3ccc(O)cc3)NC(=O)[C@H](CC(C)C)NC(=O)[C@@H](N)Cc3ccc(C(C)=NOCCNC(=O)[C@H](CCC(=O)O)NC(=O)CNC(=O)CNC(=O)CNC(=O)CNC(=O)[C@H](CO)NC(=O)[C@H](CCCCN)NC(=O)CC[C@H](NC(=O)CCCCCCCCCCCCC(=O)O)C(=O)O)cc3)CSSC[C@H](NC(=O)CNC(=O)[C@H](C(C)C)NC(=O)[C@H](Cc3c[nH]cn3)NC2=O)C(=O)N[C@@H]([C@@H](C)O)C(=O)N[C@@H](CCCCN)C(=O)N[C@@H](CCCNC(=N)N)C(=O)N[C@@H](CO)C(=O)N[C@@H](CC(C)C)C(=O)N[C@@H](C)C(=O)N[C@@H](CCCNC(=N)N)C(=O)N[C@@H](Cc2ccccc2)C(=O)N[C@H](C(=O)O)CSSC[C@@H](C(=O)NCC(=O)N[C@@H](CCSC)C(=O)N[C@@H](CO)C(=O)N[C@H](C(=O)N[C@@H](Cc2c[nH]c3ccccc23)C(=O)N[C@@H](CO)C(=O)O)[C@@H](C)O)NC1=O` [AQ1-EGGGGSK-Glu^γ-C13-COOH]: a half-maximal effect (EC50) was put at 0.31 nM.

`CC[C@H](C)[C@@H]1NC(=O)[C@H](C)NC(=O)[C@H]([C@@H](C)CC)NC(=O)[C@H](CCC(N)=O)NC(=O)[C@H](C)NC(=O)[C@H](CCCNC(=N)N)NC(=O)[C@H](C(C)C)NC(=O)[C@H](CC(C)C)NC(=O)[C@H](CCC(=O)O)NC(=O)[C@H](CCCNC(=N)N)NC(=O)CNC(=O)[C@@H](NC(=O)[C@H](CC(C)C)NC(=O)[C@H](CCCCN)NC(=O)[C@@H](NC(=O)[C@@H](NC(=O)[C@H](CCC(=O)O)NC(=O)[C@H](CCC(=O)O)NC(=O)[C@H](CCSC)NC(=O)[C@H](Cc2c[nH]c3ccccc23)NC(=O)[C@H](CO)NC(=O)[C@H](C)N)C(C)C)[C@@H](C)CC)CSSC[C@@H]2NC(=O)[C@@H](NC(=O)[C@H](CCCCN)NC(=O)[C@H](CC(N)=O)NC(=O)[C@H](C)NC(=O)[C@H](CC(C)C)NC(=O)[C@H](C)NC(=O)[C@H](CO)NC(=O)[C@H](Cc3ccc(O)cc3)NC(=O)[C@H](CC(C)C)NC(=O)[C@@H](N)Cc3ccc(C(C)=NOCCNC(=O)[C@H](CCC(=O)O)NC(=O)CNC(=O)CNC(=O)[C@H](CO)NC(=O)CC[C@H](NC(=O)CCCCCCCCCCCCCC(=O)O)C(=O)O)cc3)CSSC[C@H](NC(=O)CNC(=O)[C@H](C(C)C)NC(=O)[C@H](Cc3c[nH]cn3)NC2=O)C(=O)N[C@@H]([C@@H](C)O)C(=O)N[C@@H](CCCCN)C(=O)N[C@@H](CCCNC(=N)N)C(=O)N[C@@H](CO)C(=O)N[C@@H](CC(C)C)C(=O)N[C@@H](C)C(=O)N[C@@H](CCCNC(=N)N)C(=O)N[C@@H](Cc2ccccc2)C(=O)N[C@H](C(=O)O)CSSC[C@@H](C(=O)NCC(=O)N[C@@H](CCSC)C(=O)N[C@@H](CO)C(=O)N[C@H](C(=O)N[C@@H](Cc2c[nH]c3ccccc23)C(=O)N[C@@H](CO)C(=O)O)[C@@H](C)O)NC1=O` [AQ1-EGGS-Glu^γ-C14-COOH] registered an EC50 of 0.33 nM.

`CC[C@H](C)[C@@H]1NC(=O)[C@H](C)NC(=O)[C@H]([C@@H](C)CC)NC(=O)[C@H](CCC(N)=O)NC(=O)[C@H](C)NC(=O)[C@H](CCCNC(=N)N)NC(=O)[C@H](C(C)C)NC(=O)[C@H](CC(C)C)NC(=O)[C@H](CCC(=O)O)NC(=O)[C@H](CCCNC(=N)N)NC(=O)CNC(=O)[C@@H](NC(=O)[C@H](CC(C)C)NC(=O)[C@H](CCCCN)NC(=O)[C@@H](NC(=O)[C@@H](NC(=O)[C@H](CCC(=O)O)NC(=O)[C@H](CCC(=O)O)NC(=O)[C@H](CCSC)NC(=O)[C@H](Cc2c[nH]c3ccccc23)NC(=O)[C@H](CO)NC(=O)[C@H](C)N)C(C)C)[C@@H](C)CC)CSSC[C@@H]2NC(=O)[C@@H](NC(=O)[C@H](CCCCN)NC(=O)[C@H](CC(N)=O)NC(=O)[C@H](C)NC(=O)[C@H](CC(C)C)NC(=O)[C@H](C)NC(=O)[C@H](CO)NC(=O)[C@H](Cc3ccc(O)cc3)NC(=O)[C@H](CC(C)C)NC(=O)[C@@H](N)Cc3ccc(/C(C)=N/OCCNC(=O)[C@H](CCCCN)NC(=O)CNC(=O)CNC(=O)CNC(=O)[C@H](CO)NC(=O)CC[C@H](NC(=O)CCCCCCCCCCCCCC(=O)O)C(=O)O)cc3)CSSC[C@H](NC(=O)CNC(=O)[C@H](C(C)C)NC(=O)[C@H](Cc3c[nH]cn3)NC2=O)C(=O)N[C@@H]([C@@H](C)O)C(=O)N[C@@H](CCCCN)C(=O)N[C@@H](CCCNC(=N)N)C(=O)N[C@@H](CO)C(=O)N[C@@H](CC(C)C)C(=O)N[C@@H](C)C(=O)N[C@@H](CCCNC(=N)N)C(=O)N[C@@H](Cc2ccccc2)C(=O)N[C@H](C(=O)O)CSSC[C@@H](C(=O)NCC(=O)N[C@@H](CCSC)C(=O)N[C@@H](CO)C(=O)N[C@H](C(=O)N[C@@H](Cc2c[nH]c3ccccc23)C(=O)N[C@@H](CO)C(=O)O)[C@@H](C)O)NC1=O` [AQ1-KGGGS-Glu^γ-C14-COOH] showed an EC50 of 0.34 nM.

(Values after patent publication US12097241B2, “Methods of treating kidney failure, and/or improving or stablizing renal function using modified relaxin polypeptides” (BRISTOL-MYERS SQUIBB COMPANY, priority 2017, dated 2024).)
